Structures are written as SMILES. “Also recorded” adds a separate entry of the source.

Here are results for one compound from US20240342190A1, “METHODS FOR REDUCING ISCHEMIA-REPERFUSION INJURIES” (BioMimetix JV, LLC, priority 2023, published 2024).

Data set [1] has as its system young female Wistar rats subjected to 90 min of MCAO (ischemic stroke). The data set is described as follows: Experiment 2: long-term stroke outcome in young female rats. It is filed as in vivo, rat. As to conditions: for Neurologic score: median±IQR, p=0.04 vs vehicle. How it is done:
(§1) The rats were fasted overnight for glucose control. On the surgery day, they were anesthetized with 5% isoflurane in 30% oxygen balanced with nitrogen. The trachea was orally intubated, and both lungs were mechanically ventilated to maintain normocapnia. Isoflurane was reduced to 1.5% during the surgical procedure. A 22-gauge needle thermistor was percutaneously inserted beneath the temporalis muscle adjacent to the skull. The pericranial temperature was maintained at 37.0° C.±0.2° C. by a surface heat lamp. The tail artery was cannulated with PE 50 tubing (BD Intramedic™ Polyethylene Tubing, Sparks, MD, USA), and arterial blood pressure was continuously monitored. 50 IU of heparin was given via arterial line to prevent intra-arterial thrombosis. Arterial blood samples were collected pre, during, and after ischemia for blood gas, glucose, and hematocrit measurements.
(§2) Ischemic stroke was induced by transiently occluding the middle cerebral artery (MCAO) as previously reported.^23,24 Briefly, a midline cervical incision was made and the right common carotid artery […] was identified. The external and internal carotid arteries were dissected. […] The internal carotid artery (ICA) was dissected distally until the origin of the pterygopalatine artery was visualized. After surgical preparation, a 10 min interval was allowed for physiologic stabilization. […] The common carotid artery was re-opened, and a timer was started as the onset of cerebral ischemia.
(§3) After 90 min of MCAO, the filament was removed and a PE-10 tube (BD Intramedic™ Polyethylene Tubing, Sparks, MD, USA) was inserted into the ICA beyond the origin of the pterygopalatine artery. The vehicle or BMX-001 (30-50 μg/kg) solution (1 μl/g for both solutions, 250 μl for the 250 g rat) was slowly infused for 5 minutes via syringe pump. At the completion of intra-carotid infusion, the PE tube was removed and the ECA stump was permanently ligated. The tail artery catheter was removed and both the neck incision and tail incision were infiltrated with bupivacaine and closed with suture. Isoflurane was discontinued. Rats were disconnected from the ventilator when they attained spontaneous respiration and kept in a recovery cage. The tracheas were extubated after recovery of the righting reflex. They were in an O2 enriched environment (30% O2) for 1 h and then returned to the home cage.
(§4) Post-stroke neurologic deficits were assessed at day 7 and 28 using a standardized neurological scoring system.^27,28 General status, simple motor deficit, complex motor deficit, and sensory deficit were evaluated, including the ability of walking on a beam and climbing on the vertical screen. The total score each animal received was the sum of all four individual scores (0-48, 0=normal and 48=the worst score).
Upon the completion of functional tests, the animals were weighed, anesthetized with isoflurane, and decapitated. The brains were harvested, frozen at −20° C. in 2-methylbutane on dry ice, and stored in a −80° C. freezer. Serial quadruplicate 20-μm-thick coronal sections were cut using a Leica cryostat and mounted on the slides at 720-μm interval over the rostral-caudal extent of the brain. The sections were dried on a slide heater at 36° C., and stained with hematoxylin and eosin. […] The area in each ROI (mm^2) was determined by automated counting of calibrated pixels and the volume (mm^3) was computed by the known interval between sections over the rostral-caudal extent of brain. […]

Data set [2] deals with young male spontaneously hypertensive rats (SHR) subjected to 90 min of MCAO. Nature of the data set: Experiment 4: stroke outcome in young spontaneously hypertensive rats. As to conditions: for Neurologic score: median±IQR. It is filed as in vivo, rat. The protocol: as §1, §2, §3, §4
Upon the completion of functional tests, the animals were weighed, anesthetized with isoflurane, and decapitated. The brains were harvested, frozen at −20° C. in 2-methylbutane on dry ice, and stored in a −80° C. freezer. Serial quadruplicate 20-μm-thick coronal sections were cut using a Leica cryostat and mounted on the slides at 720-μm interval over the rostral-caudal extent of the brain. The sections were dried on a slide heater at 36° C., and stained with hematoxylin and eosin. A section from each […] interval was digitized with a video camera controlled by an image analyzer (MCID, the MicroComputer Imaging Device, Imaging Research Inc, St. Catharines, Ontario, Canada). […] With the observer blinded to the experimental condition, the following regions of interest (ROI) were outlined individually using an operator-controlled cursor, including non-infarcted ipsilateral cerebral cortex, non-infarcted ipsilateral subcortex, contralateral cerebral cortex, and contralateral subcortex. The area in each ROI (mm^2) was determined by automated counting of calibrated pixels and the volume (mm^3) was computed by the known interval between sections over the rostral-caudal extent of brain. […]

The test system of another data set is blood brain barrier. The data set is described as follows: Experiment 7: blood brain barrier permeability after intracarotid infusion (Evans blue content). To be noted: non-stroke rats, vs vehicle. How it is done: 30 μg/kg of BMX-001 (n=4), or same amount of saline (n=4) or mannitol (n=4) was given to normal male Wistar rats through the carotid artery. The rats received 100 μl 2% Evans blue intravenous infusion 30 min later and then intracardially perfused using 100 ml normal saline at 30 min following infusion. Brains were harvested and the Evans blue content was measured spectrophotometrically.

Turning to `CCCCOCC[n+]1ccccc1C1=C2C=CC3=[N+]2[Mn]24[n]5c1ccc5C(c1cccc[n+]1CCOCCCC)=C1C=CC(=[N+]12)C(c1cccc[n+]1CCOCCCC)=c1ccc([n]14)=C3c1cccc[n+]1CCOCCCC` [BMX-001, MnTnBuOE-2-PyP^5+], the Neurologic score in data set [1] (7 days post-stroke) is reported as 11±7; in data set [1] (28 days post-stroke), 7±6; in data set [2] (day 7, p=0.05 vs vehicle), 14±8; in data set [2] (day 28, p=0.018 vs vehicle), 9.5±6.25. Further, the Infarct volume in data set [1] (28 days post-stroke, p=0.38 vs vehicle) amounted to 157.378 ±63.699 mm^3. Also, the “Neurologic score (FIG. 2, Panel A), in words” value in data set [1] (day 7 and day 28 compared to the vehicle group) was “better neurologic score”. In addition, the “Infarct volumes (FIG. 2, Panel B), in words” value in data set [1] (day 28, no intragroup difference was detected) was “smaller”. Besides, in data set [2] (10 minutes post-stroke, SHR rats), the MAP worked out at 83 ± 11 mmHg. Besides, in data set [2] (28 days), the “Infarct volume (FIG. 4, Panel C), in words” value was “no intra-group difference”. This compound registered a Subcortex infarct volume in data set [2] (28 days, p=0.14) of 51±23 mm^3. The Total infarct volume in data set [2] (28 days, p=0.21) stood at 179±51 mm^3. In data set [2] (28 days, p=0.37), this compound returned a Cortex infarct volume of 128±37 mm^3. Besides, the “Neurological deficits (FIG. 4, Panel B), in words” value in data set [2] (day 28 post-stroke) is listed as “significantly improved”. Further, the “Rats survived for 28 days” value in data set [2] (of n=15, three BMX-001 rats died at 8, 9 and 10 days after stroke) stood at 12. Moreover, in the data set with blood brain barrier, the “Evans blue content in brain / blood brain barrier permeability, in words” value is given as “only somewhat higher Evans blue content; also recorded: did not affect the BBB”.
